Data on two substances can be found in US8796209B2, “Compositions and methods related to anti-FGF agents” (The Regents of the University of California, priority 2005, dated 2014).

What all share (assay type): cell-based
Experiment [1] deals with M21 human melanoma cells. Description: Chemoresistance: caspases 3/7 activity with etoposide. The settings on record: in presence of wt FGF. How it is done:
M21 human melanoma cells were cultured in DMEM with 1% FBS for 48 h, and then treated with etoposide (0.1-100 μM) in the presence or absence of wt or mutant FGF for 48 h.
(§1) Cells were plated on well of 96-well tissue culture plates and serum-starved for 48-72 h in DMEM supplemented with 0-1% FBS. Then cells were treated with etoposide (up to 100 μM) and wt or mutant FGF for additional 24-48 h. Cell viability was determined using CellTiter 96 MTS assay (Promega) and caspases 3/7 activity was determined by using Caspase-Glo 3/7 assay kit (Promega). FIGS. 10 and 11.

Experiment [2] concerns M21 human melanoma cells. Briefly: Chemoresistance: cell viability with etoposide (MTS). The settings on record: etoposide 0.1-100 μM, 48 h. The method, then: In FIG. 10, results are provided showing suppression of FGF-induced drug resistance in M21 melanoma cells. Resistance of melanoma cells was to etoposide-induced apoptosis. M21 human melanoma cells were cultured in DMEM with 1% FBS for 48 h, and then treated with etoposide (0.1-100 μM) in the presence or absence of wt or mutant FGF for 48 h, with cell viability determined.
as §1

A further experiment concerns K562 cells. Description: Cell adhesion assay on immobilized FGF-1, mock-transfected K562 cells. The settings on record: 1 mM MnCl2. The method, then:
K562 cells were treated with 10 μg/ml anti-α5 function-blocking antibody KH72 (square) or mouse IgG (diamond) for 10 min on ice. Hepes-Tyrode buffer supplemented with 1 mM MnCl2) was used for adhesion assays. Bound cells were quantified by measuring endogenous phosphatase activity. BSA (cross) was used as a negative control. Data is shown as means+/−SD of triplicate experiments.
Wells of polystyrene 96-well non-tissue culture plate were coated with wild type or mutants FGF-1 as above. In adhesion assay, cells (10^5 cells/well) in 100 μl of Hepes-Tyrode buffer supplemented with 1 mM Mn^2+ were added to the wells and incubated at 37° C. for 1 h. After non-bound cells were removed by rinsing the wells with the same buffer, bound cells were quantified by measuring endogenous phosphatase activity (Prater et al., 1991)

With “R50E: FGF-1 mutant with the Arg-50 to Glu (R50E) mutation”, the “effect on caspase activation” value with M21 human melanoma cells [1] is given as “blocked inhibition of caspase activation”. For the same substance, the “effect on apoptosis induced by etoposide” value in the experiment on M21 human melanoma cells [2] is given as “enhanced apoptosis”.

Consider “Wild type: human FGF-1 (acidic FGF), wild type, expressed in E. coli”, for which, in the experiment on K562 cells, the “adhesion of mock-transfected K562 cells to the immobilized protein” value was “bound to immobilized FGF-1 in a dose-dependent manner”.
